Results from PMC12669630, “The twist-and-squeeze activation of CARF-fused adenosine deaminase by cyclic oligoadenylates” (The EMBO Journal, 2025).
Like-named read-outs stand apart in the source and are kept apart here. One block for each molecule: values may come before it.

Key:
TaqCad1 [1] = biological target: T1, TaqCad1 (Thermoanaerobaculum aquaticum, UniProt A0A062XY19, G264D/N549D); test: HPLC ATP deamination assay; type: biochemical; conditions: no conversion; cA4 activator, Mg2+, pH 7.5, 55 °C
T1 construct: gene EG19_07865; full length 1-625, C-terminal His6 tag kept, E. coli NiCo21(DE3); homohexamer (trimer of dimers); N-terminal CARF, C-terminal ADA domain
T1 sequence (A0A062XY19 entry or part of it G264D/N549D): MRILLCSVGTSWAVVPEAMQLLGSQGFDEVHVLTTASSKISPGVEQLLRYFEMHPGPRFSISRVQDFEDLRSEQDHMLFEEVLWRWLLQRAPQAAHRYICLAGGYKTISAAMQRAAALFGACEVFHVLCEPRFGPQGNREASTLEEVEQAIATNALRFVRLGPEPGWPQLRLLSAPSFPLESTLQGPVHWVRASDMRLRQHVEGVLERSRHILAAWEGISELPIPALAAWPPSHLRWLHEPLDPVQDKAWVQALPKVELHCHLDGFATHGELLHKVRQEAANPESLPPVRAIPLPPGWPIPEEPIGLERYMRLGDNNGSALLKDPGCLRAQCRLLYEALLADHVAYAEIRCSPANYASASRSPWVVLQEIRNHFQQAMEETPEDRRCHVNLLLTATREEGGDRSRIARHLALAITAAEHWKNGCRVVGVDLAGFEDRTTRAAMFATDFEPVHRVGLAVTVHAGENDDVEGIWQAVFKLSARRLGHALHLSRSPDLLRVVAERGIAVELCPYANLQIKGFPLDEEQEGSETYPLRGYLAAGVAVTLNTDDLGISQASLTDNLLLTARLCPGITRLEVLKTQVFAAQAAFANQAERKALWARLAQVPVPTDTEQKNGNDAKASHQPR

TaqCad1 [2] = biological target: T2, TaqCad1 (Thermoanaerobaculum aquaticum, UniProt A0A062XY19, N549D); test: HPLC ATP deamination assay; type: biochemical; conditions: no conversion; cA4 activator, Mg2+, pH 7.5, 55 °C
T2 construct: gene EG19_07865; full length 1-625, C-terminal His6 tag kept, E. coli NiCo21(DE3); homohexamer (trimer of dimers); N-terminal CARF, C-terminal ADA domain
T2 sequence (A0A062XY19 entry or part of it N549D): as the sequence (A0A062XY19 entry or part of it G264D/N549D) above, with D264G counted along it

TaqCad1 [3] = biological target: T3, TaqCad1 (Thermoanaerobaculum aquaticum, UniProt A0A062XY19); test: microscale thermophoresis (RED-tris-NTA labelled protein); type: binding
T3 construct: gene EG19_07865; full length 1-625, C-terminal His6 tag kept, E. coli NiCo21(DE3); homohexamer (trimer of dimers); N-terminal CARF, C-terminal ADA domain
T3 sequence (A0A062XY19 entry or part of it): as the sequence (A0A062XY19 entry or part of it G264D/N549D) above, with D264G, D549N counted along it

[4] = biological target: TaqCad1 R408D/A411E variant (Thermoanaerobaculum aquaticum); test: SEC; gel filtration elution profiles of wild type and R408D/A411E compared; column and buffer of this run not stated

Molecule: Nc1ncnc2c1ncn2[C@@H]1O[C@H](COP(=O)(O)OP(=O)(O)OP(=O)(O)O)[C@@H](O)[C@H]1O [ATP]
- HPLC ATP deamination assay (TaqCad1 [1]): the N549D or the N549D/G264D variant of TaqCad1 did not react to ATP
- HPLC ATP deamination assay (TaqCad1 [2]): the N549D or the N549D/G264D variant of TaqCad1 did not react to ATP

- Kd (TaqCad1 [3]; read-out: apparent Kd): 0.013 ± 0.007 µM
Molecule: Nc1ncnc2c1ncn2[C@@H]1O[C@@H]2COP(=O)(O)O[C@H]3[C@@H](O)[C@H](n4cnc5c(N)ncnc54)O[C@@H]3COP(=O)(O)O[C@H]3[C@@H](O)[C@H](n4cnc5c(N)ncnc54)O[C@@H]3COP(=O)(O)O[C@H]3[C@@H](O)[C@H](n4cnc5c(N)ncnc54)O[C@@H]3COP(=O)(O)O[C@H]2[C@H]1O [cA4]

- Kd (TaqCad1 [3]; read-out: apparent dissociation constant): ~1.4 µM
Molecule: Nc1ncnc2c1ncn2[C@@H]1O[C@@H]2COP(=O)(O)O[C@H]3[C@@H](O)[C@H](n4cnc5c(N)ncnc54)O[C@@H]3COP(=O)(O)O[C@H]3[C@@H](O)[C@H](n4cnc5c(N)ncnc54)O[C@@H]3COP(=O)(O)O[C@H]3[C@@H](O)[C@H](n4cnc5c(N)ncnc54)O[C@@H]3COP(=O)(O)O[C@H]3[C@@H](O)[C@H](n4cnc5c(N)ncnc54)O[C@@H]3COP(=O)(O)O[C@H]3[C@@H](O)[C@H](n4cnc5c(N)ncnc54)O[C@@H]3COP(=O)(O)O[C@H]2[C@H]1O [cA6]

- stoichiometry N [4]: 2
Molecule: TaqCad1 R408D/A411E variant (enzyme)
